Where a name gives a salt, the structure may show the parent alone.
biological target: Nav1.8 (Homo sapiens, UniProt Q9Y5Y9); experiment: Nav1.8 FLIPR HTS; type: cell-based; details: HEK293, read-out: Average percent inhibition at 10 μM (Nav1.8)
Sequence (Q9Y5Y9 whole entry): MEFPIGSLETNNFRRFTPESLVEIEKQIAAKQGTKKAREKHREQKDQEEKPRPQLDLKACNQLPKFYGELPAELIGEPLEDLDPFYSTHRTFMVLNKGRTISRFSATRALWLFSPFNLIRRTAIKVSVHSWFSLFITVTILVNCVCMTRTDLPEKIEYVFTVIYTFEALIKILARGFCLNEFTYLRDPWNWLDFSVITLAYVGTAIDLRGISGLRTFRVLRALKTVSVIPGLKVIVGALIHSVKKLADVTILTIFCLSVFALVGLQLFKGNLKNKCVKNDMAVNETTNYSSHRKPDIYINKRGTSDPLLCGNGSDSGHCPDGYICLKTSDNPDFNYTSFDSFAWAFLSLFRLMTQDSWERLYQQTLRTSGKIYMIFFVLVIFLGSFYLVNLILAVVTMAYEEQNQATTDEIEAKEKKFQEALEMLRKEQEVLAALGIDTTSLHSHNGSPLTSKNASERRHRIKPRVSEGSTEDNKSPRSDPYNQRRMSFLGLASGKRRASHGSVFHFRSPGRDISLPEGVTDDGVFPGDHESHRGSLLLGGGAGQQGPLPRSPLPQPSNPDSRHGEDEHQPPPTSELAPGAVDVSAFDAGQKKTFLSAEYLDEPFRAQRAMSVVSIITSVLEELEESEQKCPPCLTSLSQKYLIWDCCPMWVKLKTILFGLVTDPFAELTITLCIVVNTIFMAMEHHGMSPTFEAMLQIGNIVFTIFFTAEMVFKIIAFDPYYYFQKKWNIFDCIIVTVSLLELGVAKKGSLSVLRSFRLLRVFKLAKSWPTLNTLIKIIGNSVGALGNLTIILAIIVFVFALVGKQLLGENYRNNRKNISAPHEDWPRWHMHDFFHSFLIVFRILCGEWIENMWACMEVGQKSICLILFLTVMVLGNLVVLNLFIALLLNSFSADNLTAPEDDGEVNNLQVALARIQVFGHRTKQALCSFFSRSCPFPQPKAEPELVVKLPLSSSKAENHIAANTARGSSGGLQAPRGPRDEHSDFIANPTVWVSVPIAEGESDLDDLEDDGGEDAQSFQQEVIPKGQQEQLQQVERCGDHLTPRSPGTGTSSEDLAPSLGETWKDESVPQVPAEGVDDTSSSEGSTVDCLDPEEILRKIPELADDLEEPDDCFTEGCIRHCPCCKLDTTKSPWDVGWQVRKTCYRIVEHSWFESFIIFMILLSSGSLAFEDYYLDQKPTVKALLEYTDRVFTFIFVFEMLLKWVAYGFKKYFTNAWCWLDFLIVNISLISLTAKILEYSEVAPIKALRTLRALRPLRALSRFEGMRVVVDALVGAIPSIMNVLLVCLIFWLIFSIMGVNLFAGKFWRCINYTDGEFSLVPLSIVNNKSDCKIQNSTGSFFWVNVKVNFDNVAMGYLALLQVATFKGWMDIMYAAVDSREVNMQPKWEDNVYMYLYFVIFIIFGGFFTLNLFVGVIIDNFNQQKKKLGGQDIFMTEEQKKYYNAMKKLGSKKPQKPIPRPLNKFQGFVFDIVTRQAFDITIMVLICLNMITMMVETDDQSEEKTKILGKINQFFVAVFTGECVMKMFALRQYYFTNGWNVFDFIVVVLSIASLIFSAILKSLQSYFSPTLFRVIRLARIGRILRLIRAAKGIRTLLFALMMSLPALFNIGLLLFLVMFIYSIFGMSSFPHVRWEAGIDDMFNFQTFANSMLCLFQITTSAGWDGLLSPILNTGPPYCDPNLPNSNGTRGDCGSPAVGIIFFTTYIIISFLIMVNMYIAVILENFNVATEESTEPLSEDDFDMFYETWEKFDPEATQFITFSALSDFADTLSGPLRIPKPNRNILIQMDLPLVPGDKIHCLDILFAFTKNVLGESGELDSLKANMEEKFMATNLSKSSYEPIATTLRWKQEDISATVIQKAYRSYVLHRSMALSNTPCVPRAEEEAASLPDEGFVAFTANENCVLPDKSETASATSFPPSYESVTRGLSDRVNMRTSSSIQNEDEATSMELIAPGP

Point of comparison: `CN1CCC(=C2c3ccccc3Sc3ccccc32)CC1` [Pimethixene maleate], inhibition at 10 µM 88.5%. Against it:
- CN(C/C=C/c1ccccc1)Cc1cccc2ccccc12 [Naftifine hydrochloride] — higher, 96.1%
- OC(CNCC(O)C1CCc2cc(F)ccc2O1)C1CCc2cc(F)ccc2O1 (stereo not drawn) [Nebivolol hydrochloride] — lower, 82.7%
- CCc1nn(CCCN2CCN(c3cccc(Cl)c3)CC2)c(=O)n1CCOc1ccccc1 [Nefazodone hydrochloride] — the same, 88.5%
- CO[C@]12C[C@@H](COC(=O)c3cncc(Br)c3)CN(C)[C@@H]1Cc1cn(C)c3cccc2c13 [Nicergoline] — lower, 82.3%
- CNCCC=C1c2ccccc2CCc2ccccc21 [Nortriptyline hydrochloride] — lower, 85.9%
- CN(C(=O)CN(CCO)CC(=O)N(C)C(C)(C)Cc1ccccc1)C(C)(C)Cc1ccccc1 [Oxethazaine] — higher, 92.9%
- CCN(CC)CC#CCOC(=O)C(O)(c1ccccc1)C1CCCCC1 (stereo not drawn) [Oxybutynin chloride] — lower, 77.3%
- C1CCC(C(CC2CCCCN2)C2CCCCC2)CC1 (stereo not drawn) [Perhexiline maleate] — lower, 79.2%
- O=C1[C@H]2CCCC[C@H]2C(=O)N1CCCCN1CCN(c2nsc3ccccc23)CC1 [Perospirone] — higher, 89.7%
- CC(COc1ccccc1)N(CCCl)Cc1ccccc1 (stereo not drawn) [Phenoxybenzamine hydrochloride] — lower, 86.1%
- O=c1[nH]c2ccccc2n1C1CCN(CCCC(c2ccc(F)cc2)c2ccc(F)cc2)CC1 [Pimozide] — higher, 101%
- CN(C)CCCN1c2ccccc2Sc2ccccc21 [Promazine hydrochloride] — lower, 88.1%
- CC(CN1c2ccccc2Sc2ccccc21)N(C)C (stereo not drawn) [Promethazine hydrochloride] — lower, 78.5%
- CCCOc1ccc(C(=O)OCCN(CC)CC)cc1N [Proparacaine hydrochloride] — higher, 103%
- CNCCCC1c2ccccc2C=Cc2ccccc21 [Protriptyline hydrochloride] — lower, 80%
- CC(C)(C)NCC(O)c1ccc(O)c(CO)c1 (stereo not drawn) [Salbutamol] — lower, 78%
- OCc1cc(C(O)CNCCCCCCOCCCCc2ccccc2)ccc1O (stereo not drawn) [Salmeterol] — higher, 99.6%
- CC(C)(C)NC(=O)[C@@H]1C[C@@H]2CCCC[C@@H]2CN1C[C@@H](O)[C@H](Cc1ccccc1)NC(=O)[C@H](CC(N)=O)NC(=O)c1ccc2ccccc2n1 [Saquinavir mesylate] — higher, 92.8%
- O=C(CCCN1CCC2(CC1)C(=O)NCN2c1ccccc1)c1ccc(F)cc1 [Spiperone] — lower, 82%
- CCCCCCCCNC(C)C(O)c1ccc(SC(C)C)cc1 (stereo not drawn) [Suloctidil] — higher, 93.8%
- [H]/N=C(/NCCCCC)N/N=C/c1c[nH]c2ccc(OC)cc12 [Tegaserod maleate] — higher, 98.3%
- CN1CCN(CCCN2c3ccccc3Sc3ccc(C(F)(F)F)cc32)CC1 [Trifluoperazine dihydrochloride] — lower, 79.1%
- CCC(COC(=O)c1cc(OC)c(OC)c(OC)c1)(c1ccccc1)N(C)C (stereo not drawn) [Trimebutine] — higher, 88.7%
- CCOC(=O)C1=C[C@]2(CC)CCCN3CCc4c(n1c1ccccc41)[C@@H]32 [Vinpocetine] — higher, 93.4%

biological target: human KV7.1 (Homo sapiens, UniProt P51787); experiment: KV7.1 86Rb+ efflux HTS; type: cell-based; details: 10 μM, n=2, CHO cells, 86Rb+ efflux, normalized to 10 μM chromanol 293B control
Sequence (P51787 whole entry): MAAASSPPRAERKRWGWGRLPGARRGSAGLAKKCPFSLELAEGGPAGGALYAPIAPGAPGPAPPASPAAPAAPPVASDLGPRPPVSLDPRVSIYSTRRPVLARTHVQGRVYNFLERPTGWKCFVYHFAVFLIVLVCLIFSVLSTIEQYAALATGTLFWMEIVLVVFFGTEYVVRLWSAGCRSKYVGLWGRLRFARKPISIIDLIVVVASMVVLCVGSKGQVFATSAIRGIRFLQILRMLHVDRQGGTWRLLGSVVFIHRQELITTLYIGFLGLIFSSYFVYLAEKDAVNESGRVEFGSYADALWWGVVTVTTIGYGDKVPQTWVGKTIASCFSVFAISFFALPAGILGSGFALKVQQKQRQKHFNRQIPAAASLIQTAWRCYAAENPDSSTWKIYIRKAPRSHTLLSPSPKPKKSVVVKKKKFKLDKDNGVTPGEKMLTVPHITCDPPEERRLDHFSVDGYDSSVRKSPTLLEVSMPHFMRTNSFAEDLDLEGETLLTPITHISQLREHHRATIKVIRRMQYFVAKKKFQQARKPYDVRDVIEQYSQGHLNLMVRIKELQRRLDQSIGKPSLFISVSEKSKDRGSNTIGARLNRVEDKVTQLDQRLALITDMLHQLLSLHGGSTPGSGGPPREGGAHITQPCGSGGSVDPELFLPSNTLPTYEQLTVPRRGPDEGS

Point of comparison: `C[C@]12CC[C@@H]3c4ccc(O)cc4CC[C@H]3[C@@H]1CC[C@@H]2O` [Estradiol-17 beta], “Average percent inhibition at 10 μM (KCNQ1)” value 56.3%. Against it:
- CN1CCN(C(c2ccccc2)c2ccccc2)CC1.Cl [Cyclizine hydrochloride] — lower, 45.9%
- CC(=O)O[C@H]1CC[C@@]2(C)C(=CC[C@@H]3[C@@H]2CC[C@]2(C)C(=O)CC[C@@H]32)C1 [Dehydroisoandosterone 3-acetate] — lower, 52.9%
- CN1CCCN(C(c2ccccc2)c2ccc(Cl)cc2)CC1.Cl.Cl (stereo not drawn) [Homochlorcyclizine dihydrochloride] — lower, 43.5%

same assay, conditions: CHO, read-out: Average percent inhibition at 10 μM (KCNQ1)

Point of comparison: `NS(=O)(=O)c1cc2c(cc1Cl)NC(CC1CCCC1)NS2(=O)=O` (stereo not drawn) [Cyclopenthiazide], inhibition at 10 µM 68.3%. Against it:
- CCOC(=O)[C@H](CCc1ccccc1)N[C@H]1CCc2ccccc2N(CC(=O)O)C1=O [Benazepril hydrochloride] — lower, 44.8%
- CCc1oc2ccccc2c1C(=O)c1cc(Br)c(O)c(Br)c1 [Benzbromarone] — lower, 58.1%
- Clc1ccc(CCC(Cn2ccnc2)Sc2c(Cl)cccc2Cl)cc1 (stereo not drawn) [Butoconazole nitrate] — lower, 67%
- Clc1ccccc1C(c1ccccc1)(c1ccccc1)n1ccnc1 [Clotrimazole] — lower, 46.3%
- C/C=C(/C(=C/C)c1ccc(O)cc1)c1ccc(O)cc1 [Dienestrol] — lower, 61.3%
- Clc1ccc(COC(Cn2ccnc2)c2ccc(Cl)cc2Cl)cc1 (stereo not drawn) [Econazole nitrate] — higher, 85.6%
- O=C1Nc2ccc(Cl)cc2[C@@](C#CC2CC2)(C(F)(F)F)O1 [Efavirenz] — higher, 80.3%
- C[C@]12CC[C@H]3C(=CCc4cc(O)ccc43)[C@@H]1CCC2=O [Equilin] — lower, 64.6%
- CCOc1ccc(Cc2nccc3cc(OCC)c(OCC)cc23)cc1OCC [Ethaverine hydrochloride] — higher, 86.9%
- C#C[C@]1(O)CC[C@H]2[C@@H]3CCc4cc(O)ccc4[C@H]3CC[C@@]21C [Ethinylestradiol] — higher, 75.8%
- C#C[C@]1(OC(C)=O)CC[C@H]2[C@@H]3CCC4=C[C@@H](OC(C)=O)CC[C@@H]4[C@H]3CC[C@@]21C [Ethynodiol diacetate] — higher, 88%
- O=C(OCCOCCO)c1ccccc1Nc1cccc(C(F)(F)F)c1 [Etofenamate] — lower, 51.8%
- CC(C)c1c(CN(C)C(C)Cc2ccccc2)n(C)n(-c2ccccc2)c1=O (stereo not drawn) [Famprofazone] — lower, 50.7%
- CC(C)OC(=O)C(C)(C)Oc1ccc(C(=O)c2ccc(Cl)cc2)cc1 [Fenofibrate] — lower, 64%
- COC1=C(OC)C(=O)C(CCCCCCCCCCO)=C(C)C1=O [Idebenone] — lower, 59%
- Clc1ccc(C(Cn2ccnc2)OCc2c(Cl)cccc2Cl)c(Cl)c1 (stereo not drawn) [Isoconazole] — lower, 61.2%
- CC(C)OC(=O)CCC/C=C\C[C@@H]1[C@@H](CC[C@@H](O)CCc2ccccc2)[C@H](O)C[C@@H]1O [Latanoprost] — lower, 63.7%
- COc1cccc(N(C)C(=S)Oc2ccc3c(c2)CCCC3)n1 [Liranaftate] — lower, 62.8%
- C[C@H](CCC(=O)O)[C@H]1CC[C@H]2[C@@H]3CC[C@@H]4C[C@H](O)CC[C@]4(C)[C@H]3CC[C@]12C [Lithocholic acid] — higher, 80.8%
- Clc1ccc(COC(Cn2ccnc2)c2ccc(Cl)cc2Cl)c(Cl)c1 (stereo not drawn) [Miconazole] — higher, 79.8%
- Clc1ccc(C(c2ccccc2Cl)C(Cl)Cl)cc1 (stereo not drawn) [Mitotane] — lower, 49.5%
- CS(=O)(=O)Nc1ccc([N+](=O)[O-])cc1Oc1ccccc1 [Nimesulide] — lower, 47.9%
- COC(=O)C1=C(C)NC(C)=C(C(=O)OCC(C)C)C1c1ccccc1[N+](=O)[O-] (stereo not drawn) [Nisoldipine] — lower, 48%
- CCOC(=O)C1=C(C)NC(C)=C(C(=O)OC)C1c1cccc([N+](=O)[O-])c1 (stereo not drawn) [Nitrendipine] — lower, 46.1%
- COc1ccc(C(=O)c2ccccc2)c(O)c1 [Oxybenzone] — lower, 57.4%
- COc1ccc(Cc2nccc3cc(OC)c(OC)cc23)cc1OC [Papaverine hydrochloride] — lower, 45.6%
- Fc1ccc([C@@H]2CCNC[C@H]2COc2ccc3c(c2)OCO3)cc1 [Paroxetine Hydrochloride] — lower, 59.9%
